Our source for the IC50 values is PMC3048735 (The Journal of Biological Chemistry, 2011).

In the experiment the target is T1, TryP (TbTryP) (Trypanosoma brucei, UniProt Q71RY2).
T1 sequence (Q71RY2 1-199): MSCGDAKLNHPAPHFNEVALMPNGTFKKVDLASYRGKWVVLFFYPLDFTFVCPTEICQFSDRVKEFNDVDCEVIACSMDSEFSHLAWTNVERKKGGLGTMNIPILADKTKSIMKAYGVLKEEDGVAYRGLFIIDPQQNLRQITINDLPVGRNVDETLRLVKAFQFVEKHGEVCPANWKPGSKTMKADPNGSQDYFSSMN
Put plainly: TryP-limited coupled peroxidase assay, NADPH consumption at […] nm. In kind it is biochemical.

On to `O=C1C=CC(O)(c2nc3ccccc3s2)C=C1` [compound 1, PMX464], for which the IC50 stood at 14.1 ± 0.8 µM.
